This note sets out measurements from patent US10150737B2, “Compounds for controlling arthropods” (priority 2013, dated 2018).

The subject of series [1] is Ctenocephalides felis. Put plainly: Ctenocephalides felis - oral test. Particulars: application rate 100 ppm in citrated cattle blood; after 2 days. The format is in vivo. In a few lines:
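Roughly 20 unfed adult C. felis imbibe compound-dosed citrated cattle blood (DMSO formulation) across parafilm from a cylinder above their gauze chamber; percentage mortality recorded at day 2.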

For series [2], the system named is Ctenocephalides felis. Put plainly: Ctenocephalides felis - in vitro contact tests with adult cat fleas. The format is in vivo. Particulars: application rate 5 μg/cm2 (=500 g/ha); after 48 h; fleas dead or moribund. In a few lines: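 Efficacy, as percentage of fleas dead or moribund, was scored at 48 h by knocking fleas to the tube base. Exposure was by contact with a dried acetone film of compound at 5 μg/cm^2 area dose; 5–10 adults per tube, room temperature, ambient humidity.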

The subject of the next series is Lucilia cuprina. Put plainly: Lucilia cuprina test. It counts as in vivo. Particulars: application rate 100 ppm; L1 larvae; after 2 days. In a few lines: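 Mortality (%) of first-instar blowfly larvae, about 20 per vessel, recorded 2 days after exposure to compound-treated minced horsemeat. Compound dissolved in dimethyl sulphoxide, then water-diluted to the desired concentration.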

A further series concerns Spodoptera frugiperda. As to the kind of experiment: Spodoptera frugiperda - spray test. The format is in vivo. Particulars: caterpillars on maize leaf discs, after 7 days. The method, boiled down:
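Percent mortality of Spodoptera frugiperda caterpillars scored 7 days after placing them on dried maize leaf discs sprayed at the desired concentration. Spray formulation: compound dissolved in acetone/dimethylformamide, made up with water containing 1000 ppm emulsifier.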

For a further series, the system named is Musca domestica. As to the kind of experiment: Musca domestica test. Particulars: application rate 100 ppm; adult houseflies; after 2 days. The format is in vivo. The method, boiled down: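 First, 10 mg compound was taken up in 0.5 ml DMSO and then brought with water to the required concentration. This was applied with sugar solution to a sponge in vessels holding 10 adult flies; kill was assessed after 2 days.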

The next series has as its system Amblyomma hebraeum. Put plainly: Amblyomma hebaraeum test (tick nymphs, immersion). The format is in vivo. Particulars: application rate 100 ppm; tick nymphs immersed one minute; after 42 days. How it is done:
Solvent: dimethyl sulphoxide
To produce an appropriate active ingredient formulation, 10 mg of active ingredient are mixed with 0.5 ml of dimethyl sulphoxide, and the concentrate is diluted with water to the desired concentration.
Tick nymphs (Amblyomma hebraeum) are placed into perforated plastic beakers and immersed in the desired concentration for one minute. The ticks are transferred on filter paper into a Petri dish and stored in a climate-controlled cabinet.
After 42 days, the kill in % is determined. 100% means that all of the ticks have been killed; 0% means that none of the ticks have been killed.

The subject of the next series is Tetranychus urticae. Put plainly: Tetranychus urticae - spray test, OP-resistant. Particulars: bean leaf discs, after 6 days. The format is in vivo. The method, boiled down: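 Mortality (%) read on day 6 after spraying Phaseolus vulgaris leaf discs carrying all mite stages with formulations at the desired concentration. Formulation: active ingredient in acetone plus dimethylformamide, made up with emulsifier-containing water (1000 ppm alkylaryl polyglycol ether).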

Series [3] relates to Boophilus microplus Parkhurst strain, SP-resistant. Put plainly: Boophilus microplus - dip test. The format is in vivo. Particulars: application rate 100 ppm; dip of engorged adult female ticks; after 7 days. The method, boiled down:
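Compound dissolved in DMSO, diluted with water, and used to fully wet groups of 8-10 engorged female cattle ticks (SP-resistant Parkhurst strain). Fertile egg laying assessed at 7 days, doubtful eggs held ~42 days until hatch; 0% means all eggs fertile.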

A short description of series [4]: logP determination by HPLC on a reversed-phase column (C18). The format is physicochemical. Particulars: for logP^a): HPLC-MS method a); for log P: HPLC-MS, Table I-T3.
The subject of a further series is Myzus persicae. As to the kind of experiment: Myzus persicae - spray test. Particulars: Chinese cabbage leaf discs, after 6 days. The format is in vivo. In a few lines:
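Mortality of the green peach aphid, as % killed, was read 6 days after spraying infested Brassica pekinensis leaf discs. Compound formulated in acetone/dimethylformamide and made up with emulsifier-containing (1000 ppm) water.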

The test system of another series is Boophilus microplus. As to the kind of experiment: Boophilus microplus - injection test. The format is in vivo. Particulars: application rate 20 μg/animal; injection into engorged adult female ticks; after 7 days. The method, boiled down:
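Five engorged adult female cattle ticks each received a 1 μl abdominal injection of compound solution in dimethyl sulphoxide. Fertile egg laying was assessed at 7 days, with doubtful eggs incubated about 42 days until hatch. 0% efficacy means all eggs fertile.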

The next series concerns Phaedon cochleariae. Put plainly: Phaedon cochleariae - spray test. Particulars: larvae on Chinese cabbage leaf discs, after 7 days. It counts as in vivo. The method, boiled down: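 Mortality of mustard beetle larvae was scored as % at day 7 on Brassica pekinensis leaf discs. Discs had been treated by spraying at the desired concentration, using an acetone/dimethylformamide solution diluted in water with 1000 ppm alkylaryl polyglycol ether, and dried before larvae were added.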

The subject of another series is Rhipicephalus sanguineus. As to the kind of experiment: Rhipicephalus sanguineus - in vitro contact tests with adult brown dog ticks. Particulars: application rate 0.2 μg/cm2; after 48 h; ticks dead or moribund. It counts as in vivo. In a few lines: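 Efficacy, scored after 48 h, is the % of adult ticks dead or moribund, i.e. unable to climb away on a 45-50° C hotplate within 5 min. Tubes held 5-10 ticks in the dark at room temperature, on an acetone-applied coating of 5 μg/cm^2 (900 ppm solution).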

As a reminder, the log P is a log measure of how a compound divides between an organic and an aqueous phase. A low value points to a more hydrophilic compound.

On to `Cc1ncc(-c2cnn(-c3c(Cl)cc(C(F)(C(F)(F)F)C(F)(F)F)cc3C(F)(F)F)c2)cc1C(=O)NC1(C#N)CC1` [I-T3-125], for which the “efficacy (kill)” value in the series on Ctenocephalides felis [1], in the series on Lucilia cuprina, in the series with Musca domestica and in the series with Amblyomma hebraeum was 100% each time. The efficacy with Ctenocephalides felis [2], in the series with Spodoptera frugiperda (application rate 100 g/ha), with Tetranychus urticae (application rate 100 g/ha) and in the series with Myzus persicae (application rate 100 g/ha) was 100% each time. Besides, the “efficacy (laying of fertile eggs)” value (in series [3]; with Boophilus microplus) was 100% each time. For the same compound, in series [4] (reversed-phase column (C18)), the “logP^a)” value worked out at 3.8. The “log P” value in series [4] (reversed-phase column (C18)) is listed as 3.8.

Turning to `CN(C(=O)c1cc(-c2cnn(-c3c(Cl)cc(C(F)(C(F)(F)F)C(F)(F)F)cc3C(F)(F)F)c2)cnc1Cl)C1(C#N)CC1` [I-T3-116], the “efficacy (kill)” value in the series on Ctenocephalides felis [1], with Lucilia cuprina, in the series with Musca domestica and with Amblyomma hebraeum was 100% in each case. For the same compound, the efficacy in the series with Phaedon cochleariae (application rate 500 g/ha) came to 100%; in the series with Ctenocephalides felis [2], 100%; with Spodoptera frugiperda (application rate 500 g/ha) it was 100%; in the series on Tetranychus urticae (application rate 500 g/ha) it was 90%; with Myzus persicae (application rate 100 g/ha), 100%. The “efficacy (laying of fertile eggs)” value (in [3]; in the series on Boophilus microplus) was 100% each time. Moreover, the “logP^a)” value in series [4] (reversed-phase column (C18)) is reported as 4.3. Also, the lipophilicity (log P) in series [4] (reversed-phase column (C18)) was 4.3.

On to `Cc1cc(C(F)(C(F)(F)F)C(F)(F)F)cc(C(F)(F)F)c1-n1cc(-c2cnc(Cl)c(C(=O)N(C)C3CC3)c2)cn1` [I-T3-107], for which the “efficacy (kill)” value in the series with Ctenocephalides felis [1], with Lucilia cuprina, with Musca domestica and in the series with Amblyomma hebraeum was 100% throughout. Besides, the efficacy with Phaedon cochleariae (application rate 500 g/ha), in the series with Ctenocephalides felis [2], with Spodoptera frugiperda (application rate 500 g/ha), with Tetranychus urticae (application rate 500 g/ha) and in the series with Myzus persicae (application rate 500 g/ha) was 100% each time. Besides, the “efficacy (laying of fertile eggs)” value (in series [3]; in the series with Boophilus microplus) was 100% in each case. The “logP^a)” value in series [4] (reversed-phase column (C18)) came to 4.5. The “log P” value in [4] (reversed-phase column (C18)) came out at 4.5.

Turning to `Cc1ncc(-c2cnn(-c3c(Cl)cc(C(F)(C(F)(F)F)C(F)(F)F)cc3C(F)(F)F)c2)cc1C(=O)NC1CC1` [I-T3-124], the “efficacy (kill)” value with Ctenocephalides felis [1], in the series with Lucilia cuprina, with Musca domestica and in the series with Amblyomma hebraeum was 100% throughout. Further, the efficacy in the series on Phaedon cochleariae (application rate 100 g/ha), in the series with Ctenocephalides felis [2], with Spodoptera frugiperda (application rate 100 g/ha), with Tetranychus urticae (application rate 100 g/ha) and with Myzus persicae (application rate 100 g/ha) was 100% in each case. Moreover, the “efficacy (laying of fertile eggs)” value (in series [3]; with Boophilus microplus) was 100% throughout. Also, the “logP^a)” value in series [4] (reversed-phase column (C18)) was 3.5. The “log P” value in series [4] (reversed-phase column (C18)) turned out to be 3.5.

As for `CCc1cc(C(F)(C(F)(F)F)C(F)(F)F)ccc1-n1cc(-c2cnc(Cl)c(C(=O)NC3(C#N)CC3)c2)cn1` [I-T3-105], the “efficacy (kill)” value with Ctenocephalides felis [1] is 100%; with Lucilia cuprina, 100%; in the series on Musca domestica, 80%; with Amblyomma hebraeum, 85%. Moreover, the efficacy with Phaedon cochleariae (application rate 500 g/ha) stood at 100%; with Spodoptera frugiperda (application rate 500 g/ha), 100%; with Tetranychus urticae (application rate 500 g/ha) it was 90%; with Myzus persicae (application rate 500 g/ha), 90%; in the series with Rhipicephalus sanguineus it was 100%. In addition, the “logP^a)” value in [4] (reversed-phase column (C18)) is 4.1. Further, the “log P” value in [4] (reversed-phase column (C18)) came to 4.1. In the series on Boophilus microplus, the “efficacy (laying of fertile eggs)” value was 100%.

As to `Cc1ncc(-c2cnn(-c3c(Cl)cc(C(F)(C(F)(F)F)C(F)(F)F)cc3C(F)(F)F)c2)cc1C(=O)N(C)C1(C#N)CC1` [I-T3-131], the “efficacy (kill)” value in the series with Ctenocephalides felis [1], in the series with Lucilia cuprina, in the series on Musca domestica and in the series with Amblyomma hebraeum was 100% each time. Moreover, the efficacy is on record as 100% in the series on Phaedon cochleariae (application rate 100 g/ha); 100% in the series with Ctenocephalides felis [2]; 100% with Spodoptera frugiperda (application rate 100 g/ha); 100% in the series with Tetranychus urticae (application rate 100 g/ha); 90% in the series on Myzus persicae (application rate 100 g/ha). For the same compound, the “efficacy (laying of fertile eggs)” value (in [3]; with Boophilus microplus) was 100% throughout. Moreover, the “logP^a)” value in series [4] (reversed-phase column (C18)) is given as 3.9. Besides, the “log P” value in [4] (reversed-phase column (C18)) turned out to be 3.9.

Turning to `Cc1cc(C(F)(C(F)(F)F)C(F)(F)F)cc(C)c1-n1cc(-c2cnc(Cl)c(C(=O)N(C)C3CC3)c2)cn1` [I-T3-101], the “efficacy (kill)” value in the series on Ctenocephalides felis [1] amounted to 100%; in the series on Lucilia cuprina it was 100%; in the series on Musca domestica it was 100%; in the series with Amblyomma hebraeum it was 95%. Moreover, the efficacy turned out to be 100% in the series on Phaedon cochleariae (application rate 500 g/ha); 100% in the series with Ctenocephalides felis [2]; 83% in the series on Spodoptera frugiperda (application rate 500 g/ha); 100% in the series on Tetranychus urticae (application rate 500 g/ha); 100% in the series with Myzus persicae (application rate 100 g/ha). Moreover, the “efficacy (laying of fertile eggs)” value (in series [3]; in the series on Boophilus microplus) was 100% in each case. Also, the “logP^a)” value in series [4] (reversed-phase column (C18)) came to 4.4. In [4] (reversed-phase column (C18)), the “log P” value turned out to be 4.4.

Take `Cc1cc(C(F)(C(F)(F)F)C(F)(F)F)cc(C)c1-n1cc(-c2cnc(Cl)c(C(=O)N(C)C3(C#N)CC3)c2)cn1` [I-T3-103]: the “efficacy (kill)” value was 100% in the series on Ctenocephalides felis [1], 100% with Lucilia cuprina, 100% in the series with Musca domestica and 90% in the series on Amblyomma hebraeum. The efficacy in the series on Phaedon cochleariae (application rate 500 g/ha) is 100%; in the series on Ctenocephalides felis [2], 100%; in the series with Spodoptera frugiperda (application rate 500 g/ha) it was 100%; in the series with Tetranychus urticae (application rate 500 g/ha), 100%; with Myzus persicae (application rate 500 g/ha) it was 90%. The “efficacy (laying of fertile eggs)” value (in series [3]; with Boophilus microplus) was 100% in each case. Moreover, the “logP^a)” value in [4] (reversed-phase column (C18)) was 4.3. Further, the “log P” value in series [4] (reversed-phase column (C18)) is given as 4.3.

For the compound `CN(C(=O)c1cc(-c2cnn(-c3c(Cl)cc(C(F)(C(F)(F)F)C(F)(F)F)cc3Cl)c2)cnc1Cl)C1CC1` [I-T3-100], the “efficacy (kill)” value in the series on Ctenocephalides felis [1], in the series on Lucilia cuprina, with Musca domestica and in the series on Amblyomma hebraeum was 100% each time. Further, the efficacy in the series with Phaedon cochleariae (application rate 500 g/ha), with Ctenocephalides felis [2], in the series on Spodoptera frugiperda (application rate 500 g/ha), in the series on Tetranychus urticae (application rate 500 g/ha) and with Myzus persicae (application rate 500 g/ha) was 100% each time. The “efficacy (laying of fertile eggs)” value (in series [3]; with Boophilus microplus) was 100% throughout. For the same compound, the “logP^a)” value in series [4] amounted to 4.4. In [4] (reversed-phase column (C18)), the “log P” value stood at 4.4.
